The test deals with USP7 (Homo sapiens, UniProt Q93009). The test can be described thus: biochemical. Further details: Ub-AMC hydrolysis by recombinant USP7 (20 nM), 30 min pre-incubation, fluorescence read-out. The note with it: read-out: % Inhibition at 50 μM.

Structures are written as SMILES. Where a name gives a salt, the structure may show the parent alone.

The term inhibition denotes the relative decrease from the control value, in per cent.

Chain of USP7 (Q93009 whole entry): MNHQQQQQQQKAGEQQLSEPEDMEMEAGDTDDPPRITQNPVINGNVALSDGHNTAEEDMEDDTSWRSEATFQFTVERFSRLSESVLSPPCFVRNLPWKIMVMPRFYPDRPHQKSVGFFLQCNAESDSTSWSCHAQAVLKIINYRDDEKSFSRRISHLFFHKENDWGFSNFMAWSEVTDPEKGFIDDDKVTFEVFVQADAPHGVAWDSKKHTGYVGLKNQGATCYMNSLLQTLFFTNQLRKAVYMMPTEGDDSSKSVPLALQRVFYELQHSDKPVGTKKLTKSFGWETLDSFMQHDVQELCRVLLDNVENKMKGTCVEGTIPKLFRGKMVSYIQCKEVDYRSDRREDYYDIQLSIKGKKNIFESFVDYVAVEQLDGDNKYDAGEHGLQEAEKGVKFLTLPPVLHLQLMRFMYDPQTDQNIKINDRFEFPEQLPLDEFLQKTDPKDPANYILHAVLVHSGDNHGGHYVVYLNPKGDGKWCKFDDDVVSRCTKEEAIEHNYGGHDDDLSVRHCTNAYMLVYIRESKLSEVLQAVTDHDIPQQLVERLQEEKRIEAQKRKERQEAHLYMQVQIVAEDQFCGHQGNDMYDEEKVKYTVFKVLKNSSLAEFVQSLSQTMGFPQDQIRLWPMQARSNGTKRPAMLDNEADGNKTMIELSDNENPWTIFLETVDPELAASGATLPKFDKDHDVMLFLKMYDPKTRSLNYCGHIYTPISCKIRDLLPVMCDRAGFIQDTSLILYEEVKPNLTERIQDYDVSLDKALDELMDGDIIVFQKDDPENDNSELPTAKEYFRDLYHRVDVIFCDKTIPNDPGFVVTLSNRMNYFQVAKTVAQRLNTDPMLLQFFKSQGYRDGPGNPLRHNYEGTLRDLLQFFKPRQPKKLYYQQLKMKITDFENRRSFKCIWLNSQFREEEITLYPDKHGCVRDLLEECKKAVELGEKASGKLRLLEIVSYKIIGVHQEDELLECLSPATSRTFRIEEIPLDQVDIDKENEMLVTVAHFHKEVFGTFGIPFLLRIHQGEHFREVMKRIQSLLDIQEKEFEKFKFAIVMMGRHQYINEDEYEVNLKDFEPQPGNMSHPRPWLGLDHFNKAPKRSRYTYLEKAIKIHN

Regarding `C[C@]12C[C@H](O)[C@H]3[C@@H](CCC4=CC(=O)CC[C@@]43C)[C@@H]1CC[C@@H]2C(=O)CO` [Corticosterone], the inhibition at 50 µM is < 5%.

Take `CC=CC(=O)N(CC)c1ccccc1C` [Crotamiton]: the inhibition at 50 µM is < 5%.

Consider `N=c1ccn2c(n1)O[C@H]1[C@H](O)[C@@H](CO)O[C@H]12` [Cyclocytidine HCl], for which the inhibition at 50 µM was 29.5%.

As for `CN1CCC(=C2c3ccccc3C=Cc3ccccc32)CC1` [Cyproheptadine], the inhibition at 50 µM was < 5%.

For `CC(=O)O[C@]1(C(C)=O)CC[C@H]2[C@@H]3C=C(Cl)C4=CC(=O)[C@@H]5C[C@@H]5[C@]4(C)[C@H]3CC[C@@]21C` [Cyproterone acetate], the inhibition at 50 µM is 28.6%.

As to `Nc1ccn([C@@H]2O[C@H](CO)[C@@H](O)[C@@H]2O)c(=O)n1` [Cytarabine], the inhibition at 50 µM is < 5%.

As to `CN(C)/N=N/c1[nH]cnc1C(N)=O` [Dacarbazine], the inhibition at 50 µM was < 5%.

Consider `C#C[C@]1(O)CC[C@H]2[C@@H]3CCC4=Cc5oncc5C[C@]4(C)[C@H]3CC[C@@]21C` [Danazol], for which the inhibition at 50 µM was < 5%.

Take `COc1cccc2c1C(=O)c1c(O)c3c(c(O)c1C2=O)C[C@@](O)(C(C)=O)C[C@@H]3O[C@H]1C[C@H](N)[C@H](O)[C@H](C)O1` [Daunorubicin HCl]: the inhibition at 50 µM is < 5%.

With `C[N+](C)(C)CCCCCCCCCC[N+](C)(C)C` [Decamethonium 2Br], the inhibition at 50 µM was < 5%.

For `C[C@]12CC[C@H](O)CC1=CC[C@@H]1[C@@H]2CC[C@]2(C)C(=O)CC[C@@H]12` [Dehydroepiandrosterone], the inhibition at 50 µM is < 5%.

Take `CC(C)Nc1cccnc1N1CCN(C(=O)c2cc3cc(NS(C)(=O)=O)ccc3[nH]2)CC1` [Delavirdine mesylate]: the inhibition at 50 µM is < 5%.

In the case of `CCCCn1c(=O)c2c(ncn2CC(C)=O)n(CCCC)c1=O` [Denbufylline], the inhibition at 50 µM was < 5%.

`C#CCN(C)C(C)Cc1ccccc1` (centres unmarked) [Deprenyl]: the inhibition at 50 µM is < 5%.

In the case of `COc1ccc2c(c1)[C@]13CCCC[C@@H]1[C@H](C2)N(C)CC3` [Dextromethorphan HBr], the inhibition at 50 µM turned out to be 41.3%.

Consider `O=C(O)Cc1ccccc1Nc1c(Cl)cccc1Cl` [Diclofenac, Na], for which the inhibition at 50 µM was < 5%.

With `O=c1[nH]cnc2c1ncn2[C@H]1CC[C@@H](CO)O1` [Didanosine], the inhibition at 50 µM was < 5%.

With `CC/C(=C(/CC)c1ccc(O)cc1)c1ccc(O)cc1` [Diethylstilbestrol], the inhibition at 50 µM came out at 30.6%.

For `O=C(O)c1cc(-c2ccc(F)cc2F)ccc1O` [Diflunisal], the inhibition at 50 µM is 31.5%.

Take `CCCCC[C@H](O)/C=C/[C@@H]1[C@@H](C/C=C\CCCC(=O)O)[C@@H](O)C[C@H]1O` [Dinoprost]: the inhibition at 50 µM was < 5%.

In the case of `CCCCC[C@H](O)/C=C/[C@H]1[C@H](O)CC(=O)[C@@H]1C/C=C\CCCC(=O)O` [Dinoprostone], the inhibition at 50 µM was 6.5%.

In the case of `CN(C)CCOC(c1ccccc1)c1ccccc1` [Diphenhydramine HCl], the inhibition at 50 µM is < 5%.

On to `CCN(CC)C(=S)SSC(=S)N(CC)CC` [Disulfiram], for which the inhibition at 50 µM was < 5%.

`CC(CCc1ccc(O)cc1)NCCc1ccc(O)c(O)c1` (centres unmarked) [Dobutamine HCl]: the inhibition at 50 µM is < 5%.

As for `CC1=C(C)C(=O)C(CCCCC#CCCCC#CCO)=C(C)C1=O` [Docebenone], the inhibition at 50 µM is < 5%.

In the case of `CC(=O)O[C@@]12CO[C@@H]1C[C@H](O)[C@@]1(C)C(=O)[C@H](O)C3=C(C)[C@@H](OC(=O)[C@H](O)[C@@H](NC(=O)OC(C)(C)C)c4ccccc4)C[C@@](O)([C@@H](OC(=O)c4ccccc4)[C@H]21)C3(C)C` [Docetaxil], the inhibition at 50 µM was < 5%.

`CN(CCOc1ccc(NS(C)(=O)=O)cc1)CCc1ccc(NS(C)(=O)=O)cc1` [Dofetilide]: the inhibition at 50 µM is < 5%.

For the molecule `O=C(O[C@@H]1C[C@@H]2C[C@H]3C[C@H](C1)N2CC3=O)c1c[nH]c2ccccc12` [Dolasetron], the inhibition at 50 µM was < 5%.

For the molecule `O=c1[nH]c2ccccc2n1CCCN1CCC(n2c(=O)[nH]c3cc(Cl)ccc32)CC1` [Domperidone], the inhibition at 50 µM is < 5%.

As for `COc1cc2c(cc1OC)C(=O)C(CC1CCN(Cc3ccccc3)CC1)C2` (centres unmarked) [Donepezil HCl], the inhibition at 50 µM was < 5%.

On to `CCN[C@H]1C[C@H](C)S(=O)(=O)c2sc(S(N)(=O)=O)cc21` [Dorzolamide], for which the inhibition at 50 µM was < 5%.

Consider `COc1cc2nc(N3CCN(C(=O)C4COc5ccccc5O4)CC3)nc(N)c2cc1OC` (centres unmarked) [Doxazosin mesylate], for which the inhibition at 50 µM is < 5%.

On to `C[C@H]1O[C@@H](n2cc(F)c(=O)[nH]c2=O)[C@H](O)[C@@H]1O` [Doxifluridine], for which the inhibition at 50 µM was < 5%.

Take `Cn1c(=O)c2c(ncn2CC2OCCO2)n(C)c1=O` [Doxofylline]: the inhibition at 50 µM was < 5%.

With `COc1cccc2c1C(=O)c1c(O)c3c(c(O)c1C2=O)C[C@@](O)(C(=O)CO)C[C@@H]3O[C@H]1C[C@H](N)[C@H](O)[C@H](C)O1` [Doxorubicin HCl], the inhibition at 50 µM was < 5%.

On to `C[C@H]1c2cccc(O)c2C(=O)C2=C(O)[C@]3(O)C(=O)C(C(N)=O)=C(O)[C@@H](N(C)C)[C@@H]3[C@@H](O)[C@@H]21` [Doxycycline HCl], for which the inhibition at 50 µM is < 5%.

As to `O=C1Nc2ccc(Cl)cc2[C@@](C#CC2CC2)(C(F)(F)F)O1` [Efavirenz], the inhibition at 50 µM is 29.8%.

With `C[C@H](N[C@@H](CCc1ccccc1)C(=O)O)C(=O)N1CCC[C@H]1C(=O)O` [Enalaprilat], the inhibition at 50 µM was < 5%.

Regarding `CNC[C@H](O)c1ccc(O)c(O)c1` [Epinephrine-(+)-tartrate l (-)], the inhibition at 50 µM is < 5%.

On to `CCCCc1ncc(/C=C(\Cc2cccs2)C(=O)O)n1Cc1ccc(C(=O)O)cc1` [Eprosartan], for which the inhibition at 50 µM was found to be 6.2%.

In the case of `C[N+](C)(C)[C@@H](Cc1c[nH]c(=S)[nH]1)C(=O)[O-]` [Ergothioneine], the inhibition at 50 µM was < 5%.

Take `C#Cc1cccc(Nc2ncnc3cc(OCCOC)c(OCCOC)cc23)c1` [Erlotinib]: the inhibition at 50 µM was < 5%.

On to `CN(C)CCC[C@@]1(c2ccc(F)cc2)OCc2cc(C#N)ccc21` [Escitalopram], for which the inhibition at 50 µM is < 5%.

Take `COC(=O)CCc1ccc(OCC(O)CNC(C)C)cc1` (centres unmarked) [Esmolol]: the inhibition at 50 µM was < 5%.

In the case of `CCOC(=O)c1cnc2c(cnn2CC)c1NN=C(C)C` [Etazolate], the inhibition at 50 µM is < 5%.

Take `COc1cc([C@@H]2c3cc4c(cc3[C@@H](O[C@@H]3O[C@@H]5CO[C@@H](C)O[C@H]5[C@H](O)[C@H]3O)[C@H]3COC(=O)[C@H]23)OCO4)cc(OC)c1O` [Etoposide]: the inhibition at 50 µM is < 5%.

For the molecule `C=C1C[C@@H]2[C@H](CC[C@]3(C)C(=O)CC[C@@H]23)[C@@]2(C)C=CC(=O)C=C12` [Exemestane], the inhibition at 50 µM was < 5%.

For `NC(=O)OCC(COC(N)=O)c1ccccc1` [Felbamate], the inhibition at 50 µM was < 5%.

`CCOC(=O)C1=C(C)NC(C)=C(C(=O)OC)C1c1cccc(Cl)c1Cl` (centres unmarked) [Felodipine]: the inhibition at 50 µM came out at 7.9%.

For the molecule `O=C(NCC1CCCCN1)c1cc(OCC(F)(F)F)ccc1OCC(F)(F)F` (centres unmarked) [Flecainide], the inhibition at 50 µM was < 5%.

As for `O=C(O)c1ccccc1Nc1cccc(C(F)(F)F)c1` [Flufenamic acid], the inhibition at 50 µM is < 5%.

For `Fc1ccc(C(c2ccc(F)cc2)N2CCN(C/C=C/c3ccccc3)CC2)cc1` [Flunarizine-2HCl], the inhibition at 50 µM was < 5%.

Consider `OCCN1CCN(CCCN2c3ccccc3Sc3ccc(C(F)(F)F)cc32)CC1` [Fluphenazine 2HCl], for which the inhibition at 50 µM is < 5%.

With `O=C1NCN(c2ccccc2)C12CCN(CCCC(c1ccc(F)cc1)c1ccc(F)cc1)CC2` [Fluspirilene], the inhibition at 50 µM is < 5%.

As for `CC(C)n1c(/C=C/[C@H](O)C[C@H](O)CC(=O)O)c(-c2ccc(F)cc2)c2ccccc21` [Fluvastatin Na], the inhibition at 50 µM is < 5%.

In the case of `CCC(=O)O[C@@H](O[P@](=O)(CCCCc1ccccc1)CC(=O)N1C[C@H](C2CCCCC2)C[C@H]1C(=O)O)C(C)C` [Fosinopril], the inhibition at 50 µM was < 5%.

With `C[C@]12CC[C@@H]3c4ccc(O)cc4C[C@@H](CCCCCCCCC[S+]([O-])CCCC(F)(F)C(F)(F)F)[C@H]3[C@@H]1CC[C@@H]2O` (some centres unmarked) [Fulvestrant], the inhibition at 50 µM is < 5%.

On to `CO[C@@H]1[C@H](OC(=O)/C=C/C=C/C=C/C=C/C(=O)O)CC[C@]2(CO2)[C@H]1[C@@]1(C)O[C@@H]1CC=C(C)C` [Fumagillin], for which the inhibition at 50 µM is < 5%.

As for `Cc1nc2c([nH]1)c(=O)n(C)c(=O)n2Cc1ccco1` [Furafylline], the inhibition at 50 µM was < 5%.

Take `NCC1(CC(=O)O)CCCCC1` [Gabapentin]: the inhibition at 50 µM is < 5%.

As for `Nc1ccn([C@@H]2O[C@H](CO)[C@@H](O)C2(F)F)c(=O)n1` [Gemcitabine HCl], the inhibition at 50 µM came out at 21.5%.

Turning to `C#C[C@]1(O)CC[C@H]2[C@@H]3CCC4=CC(=O)CCC4=C3C=C[C@@]21CC` [Gestrinone], the inhibition at 50 µM was < 5%.

As for `C[C@@H]1C(=O)O[C@H]2C[C@@]34[C@H]5C[C@@H](C(C)(C)C)[C@]36[C@@H](OC(=O)[C@@H]6O)O[C@@]4(C(=O)O5)[C@]21O` [Ginkgolide a], the inhibition at 50 µM was < 5%.

Regarding `Cc1cnc(C(=O)NCCc2ccc(S(=O)(=O)NC(=O)NC3CCCCC3)cc2)cn1` [Glipizide], the inhibition at 50 µM was < 5%.

With `CC1(C)[C@@H](O)CC[C@]2(C)[C@H]3C(=O)C=C4[C@@H]5C[C@@](C)(C(=O)O)CC[C@]5(C)CC[C@@]4(C)[C@]3(C)CC[C@@H]12` [Glycyrrhetic acid], the inhibition at 50 µM was < 5%.

Turning to `CN1[C@@H]2CCC[C@H]1C[C@@H](NC(=O)c1nn(C)c3ccccc13)C2` [Granisetron], the inhibition at 50 µM was < 5%.

`COc1ccccc1O` [Guaiacol]: the inhibition at 50 µM is < 5%.

As to `O=C(CCCN1CCC(O)(c2ccc(Cl)cc2)CC1)c1ccc(F)cc1` [Haloperidol HCl], the inhibition at 50 µM was < 5%.

(Values after paper PMC5363571 (Oncotarget, 2016).)
